{"source": "ChEMBL document CHEMBL3044907", "about": "“Sensitivity of Fusarium verticillioides isolates from rice to a novel cyanoacrylate fungicide” (Crop Prot, 2012)", "key": {"[1]": {"system": "Fusarium verticillioides", "assay": "(§1) Fungicidal activity against Fusarium verticilliodes isolate YZ22 in rice seeds harvested from bakane diseased plants assessed as number of seedlings abnormally elongated or exhibiting symptoms of damping-off at 8.33 ug/ml at 30 degC incubated for 72 hr measured after 3 days under greenhouse trials (reference value: 22.5%)", "type": "functional"}, "[2]": {"system": "Fusarium verticillioides", "assay": "as §1, with “YZ12” for “YZ22”, “6.25” for “8.33”, “45.8%)” for “22.5%)”", "type": "functional"}, "[3]": {"system": "Fusarium verticillioides", "assay": "as §1, with “N02” for “YZ22”, “6.25” for “8.33”, “41.2%)” for “22.5%)”", "type": "functional"}, "[4]": {"system": "Fusarium verticillioides", "assay": "as §1, with “JS05” for “YZ22”, “25” for “8.33”, “36.4%)” for “22.5%)”", "type": "functional"}, "[5]": {"system": "Fusarium verticillioides", "assay": "as §1, with “YZ08” for “YZ22”, “19.8%)” for “22.5%)”", "type": "functional"}, "[6]": {"system": "Fusarium verticillioides", "assay": "as §1, with “N03” for “YZ22”, “36.1%)” for “22.5%)”", "type": "functional"}, "[7]": {"system": "Fusarium verticillioides", "assay": "as §1, with “YZ02” for “YZ22”, “12.5” for “8.33”, “29.8%)” for “22.5%)”", "type": "functional"}, "[8]": {"system": "Fusarium verticillioides", "assay": "as §1, with “YZ26” for “YZ22”, “49.3%)” for “22.5%)”", "type": "functional"}, "[9]": {"system": "Fusarium verticillioides", "assay": "as §1, with “N06” for “YZ22”, “12.5” for “8.33”, “9.6%)” for “22.5%)”", "type": "functional"}, "[10]": {"system": "Fusarium verticillioides", "assay": "as §1, with “JS01” for “YZ22”, “12.5” for “8.33”, “32.5%)” for “22.5%)”", "type": "functional"}, "[11]": {"system": "Fusarium verticillioides", "assay": "as §1, with “JS06” for “YZ22”, “6.25” for “8.33”, “25.2%)” for “22.5%)”", "type": "functional"}, "[12]": {"system": "Fusarium verticillioides", "assay": "as §1, with “YZ12” for “YZ22”, “12.5” for “8.33”, “45.8%)” for “22.5%)”", "type": "functional"}, "[13]": {"system": "Fusarium verticillioides", "assay": "as §1, with “YZ12” for “YZ22”, “45.8%)” for “22.5%)”", "type": "functional"}, "[14]": {"system": "Fusarium verticillioides", "assay": "as §1, with “JS02” for “YZ22”, “12.5” for “8.33”, “24.9%)” for “22.5%)”", "type": "functional"}, "[15]": {"system": "Fusarium verticillioides", "assay": "as §1, with “JS09” for “YZ22”, “25” for “8.33”, “32.6%)” for “22.5%)”", "type": "functional"}, "[16]": {"system": "Fusarium verticillioides", "assay": "as §1, with “JS06” for “YZ22”, “25.2%)” for “22.5%)”", "type": "functional"}, "[17]": {"system": "Fusarium verticillioides", "assay": "as §1, with “25” for “8.33”", "type": "functional"}, "[18]": {"system": "Fusarium verticillioides", "assay": "as §1, with “YZ07” for “YZ22”, “12.5” for “8.33”, “43.2%)” for “22.5%)”", "type": "functional"}, "[19]": {"system": "Fusarium verticillioides", "assay": "as §1, with “N03” for “YZ22”, “12.5” for “8.33”, “36.1%)” for “22.5%)”", "type": "functional"}, "[20]": {"system": "Fusarium verticillioides", "assay": "as §1, with “YZ13” for “YZ22”, “26.8%)” for “22.5%)”", "type": "functional"}, "[21]": {"system": "Fusarium verticillioides", "assay": "as §1, with “N03” for “YZ22”, “6.25” for “8.33”, “36.1%)” for “22.5%)”", "type": "functional"}, "[22]": {"system": "Fusarium verticillioides", "assay": "as §1, with “YZ12” for “YZ22”, “25” for “8.33”, “45.8%)” for “22.5%)”", "type": "functional"}, "[23]": {"system": "Fusarium verticillioides", "assay": "as §1, with “N01” for “YZ22”, “25” for “8.33”, “27.4%)” for “22.5%)”", "type": "functional"}, "[24]": {"system": "Fusarium verticillioides", "assay": "as §1, with “N02” for “YZ22”, “12.5” for “8.33”, “41.2%)” for “22.5%)”", "type": "functional"}, "[25]": {"system": "Fusarium verticillioides", "assay": "as §1, with “JS08” for “YZ22”, “12.5” for “8.33”, “13.0%)” for “22.5%)”", "type": "functional"}, "[26]": {"system": "Fusarium verticillioides", "assay": "as §1, with “JS05” for “YZ22”, “12.5” for “8.33”, “36.4%)” for “22.5%)”", "type": "functional"}, "[27]": {"system": "Fusarium verticillioides", "assay": "as §1, with “YZ01” for “YZ22”, “6.25” for “8.33”, “33.6%)” for “22.5%)”", "type": "functional"}, "[28]": {"system": "Fusarium verticillioides", "assay": "as §1, with “YZ26” for “YZ22”, “25” for “8.33”, “49.3%)” for “22.5%)”", "type": "functional"}, "[29]": {"system": "Fusarium verticillioides", "assay": "as §1, with “JS05” for “YZ22”, “36.4%)” for “22.5%)”", "type": "functional"}, "[30]": {"system": "Fusarium verticillioides", "assay": "Fungicidal activity against Fusarium verticilliodes in rice seeds harvested from bakane diseased plants assessed as mycelial growth inhibition at 25 degC after 3 to 5 days", "type": "functional, organism-based"}, "[31]": {"system": "Fusarium verticillioides", "assay": "as §1, with “YZ07” for “YZ22”, “43.2%)” for “22.5%)”", "type": "functional"}, "[32]": {"system": "Fusarium verticillioides", "assay": "as §1, with “N05” for “YZ22”, “12.5” for “8.33”, “6.2%)” for “22.5%)”", "type": "functional"}, "[33]": {"system": "Fusarium verticillioides", "assay": "as §1, with “JS05” for “YZ22”, “6.25” for “8.33”, “36.4%)” for “22.5%)”", "type": "functional"}, "[34]": {"system": "Fusarium verticillioides", "assay": "as §1, with “YZ07” for “YZ22”, “25” for “8.33”, “43.2%)” for “22.5%)”", "type": "functional"}, "[35]": {"system": "Fusarium verticillioides", "assay": "as §1, with “YZ05” for “YZ22”, “6.25” for “8.33”, “33.3%)” for “22.5%)”", "type": "functional"}, "[36]": {"system": "Fusarium verticillioides", "assay": "as §1, with “YZ05” for “YZ22”, “33.3%)” for “22.5%)”", "type": "functional"}}}
{"smiles": "CCOC(=O)/C(C#N)=C(/N)c1ccccc1", "values": [{"measurement": "Activity", "setting": "[1]", "value": 0.5, "unit": "%"}, {"measurement": "Activity", "setting": "[2]", "value": 3.2, "unit": "%"}, {"measurement": "Activity", "setting": "[3]", "value": 2.2, "unit": "%"}, {"measurement": "Activity", "setting": "[4]", "value": 0, "unit": "%"}, {"measurement": "Activity", "setting": "[5]", "value": 0, "unit": "%"}, {"measurement": "Activity", "setting": "[6]", "value": 0, "unit": "%"}, {"measurement": "Activity", "setting": "[7]", "value": 0, "unit": "%"}, {"measurement": "Activity", "setting": "[8]", "value": 1.2, "unit": "%"}, {"measurement": "Activity", "setting": "[9]", "value": 0, "unit": "%"}, {"measurement": "Activity", "setting": "[10]", "value": 0, "unit": "%"}, {"measurement": "Activity", "setting": "[11]", "value": 1.7, "unit": "%"}, {"measurement": "Activity", "setting": "[12]", "value": 0, "unit": "%"}, {"measurement": "Activity", "setting": "[13]", "value": 1.4, "unit": "%"}, {"measurement": "Activity", "setting": "[14]", "value": 0, "unit": "%"}, {"measurement": "Activity", "setting": "[15]", "value": 0, "unit": "%"}, {"measurement": "Activity", "setting": "[16]", "value": 0, "unit": "%"}, {"measurement": "Activity", "setting": "[17]", "value": 0, "unit": "%"}, {"measurement": "Activity", "setting": "[18]", "value": 0, "unit": "%"}, {"measurement": "Activity", "setting": "[19]", "value": 0, "unit": "%"}, {"measurement": "Activity", "setting": "[20]", "value": 0, "unit": "%"}, {"measurement": "Activity", "setting": "[21]", "value": 0.5, "unit": "%"}, {"measurement": "Activity", "setting": "[22]", "value": 0, "unit": "%"}, {"measurement": "Activity", "setting": "[23]", "value": 0, "unit": "%"}, {"measurement": "Activity", "setting": "[24]", "value": 0, "unit": "%"}, {"measurement": "Activity", "setting": "[25]", "value": 0, "unit": "%"}, {"measurement": "Activity", "setting": "[26]", "value": 0, "unit": "%"}, {"measurement": "Activity", "setting": "[27]", "value": 3.7, "unit": "%"}, {"measurement": "Activity", "setting": "[28]", "value": 0.2, "unit": "%"}, {"measurement": "Activity", "setting": "[29]", "value": 0.2, "unit": "%"}, {"measurement": "EC50", "setting": "[30]", "value": 0.379, "unit": "µg/mL"}, {"measurement": "Activity", "setting": "[31]", "value": 0, "unit": "%"}, {"measurement": "Activity", "setting": "[32]", "value": 0, "unit": "%"}, {"measurement": "Activity", "setting": "[33]", "value": 2.8, "unit": "%"}, {"measurement": "Activity", "setting": "[34]", "value": 0, "unit": "%"}, {"measurement": "Activity", "setting": "[35]", "value": 0.5, "unit": "%"}, {"measurement": "Activity", "setting": "[36]", "value": 0, "unit": "%"}]}
